Earlier results on two substances are cited in PMC6339850 (ACS chemical neuroscience, 2018).

Like-named read-outs stand apart in the source and are kept apart here. Bridge positions count the residues as written; N and C are the ends. Square brackets hold non-standard residues; d marks the D form. Dap = NC[C@H](N)C(=O)O

In the data set the test system is MC1R. As to conditions: read-out: MC1R agonist potency, cited from earlier work.

With “H-Tyr-c[Cys-Arg-Phe-Phe-Asn-Ala-Phe-Cys]-Tyr-OH”, for the setting “previously reported ref 33”, the EC50 was 2.89 µM.
As for “H-Tyr-c[Dap-Arg-Phe-Phe-Asn-Ala-Phe-Asp]-Tyr-NH2 (Y[Dap]RFFNAFDY-NH2; lactam N-9; SMILES C[C@@H]1NC(=O)[C@H](CC(N)=O)NC(=O)[C@H](Cc2ccccc2)NC(=O)[C@H](Cc2ccccc2)NC(=O)[C@H](CCCNC(=N)N)NC(=O)[C@H](CN)NC(=O)[C@H](Cc2ccc(O)cc2)NC(=O)C[C@@H](C(=O)N[C@@H](Cc2ccc(O)cc2)C(N)=O)NC(=O)[C@H](Cc2ccccc2)NC1=O)”, for the setting “previously reported ref 34”, the EC50 is 28.1 µM.
